Measured values: paper PMC12730863 (Biomedicines, 2025)

How the values were obtained:
HCT-8 cells [1] = assay: Cytotoxicity assay (MTT, 72 h); format: cell-based, human; details: for Fold Resistance / IC50: HCT-8, chemotherapeutic drug alone; for Fold Resistance: relative to IC50 of HCT-8 without inhibitors
Procedure: (§1) Cells were seeded into 96-well plates at a concentration of 5 × 10^3 cells per well. Following cell attachment, the respective agents were added for a 72-h incubation period. Upon treatment completion, 500 μg/mL MTTwas added and the plates were incubated for 4 h. Subsequently, the supernatant was carefully aspirated, and 50 μL DMSO was added. Absorbance at 570 nm was measured via BioTek Synergy H1 plate reader (Agilent Technologies, Santa Clara, CA, USA). IC50 values were calculated with GraphPad Prism 8.0.

HCT-8/V cells [2] = assay: Cytotoxicity assay (MTT, 72 h); format: cell-based, human; details: for IC50 / Fold Resistance: chemotherapeutic drug alone; for Fold Resistance: relative to IC50 of HCT-8 without inhibitors
Procedure: All cell lines were grown in Dulbecco’s modified Eagle’s medium supplemented with 10% CellMax fetal bovine serum (#SA301.02.V) from Lanzhou Minhai Bio-Engineering Co. (Lanzhou, China) and maintained in a humidified incubator at 37 °C with 5% CO2.
as §1

ABCB1 [3] = target: T1, ABCB1 (Homo sapiens, UniProt P08183); assay: ABCB1 ATPase activity assay; format: biochemical; details: 5 mM Mg2+-ATP, 37 °C, 40 min, luminescence; read-out: IC50 of inhibition of the ATPase activity of ABCB1
T1 construct: purchased Promega Corporation V3601
Procedure: The detection was performed using anABCB1 ATPase Activity Assay Kit (#V3601, Promega Corporation, Madison, WI, USA). […] Subsequently, 5 mM Mg^2+-ATP was introduced to initiate the ATPase activity reaction. […] Finally, the emitted light was measured with a multi-functional microplate reader manufactured by Gene Company Limited (Chai Wan, Hong Kong).

ABCB1 [4] = assay: Western blot of ABCB1 expression in HCT-8/V cells; format: cell-based, human; details: 10 μM and 30 μM H89 for 0.5, 3 and 72 h
Procedure: Cells were placed in pre-cooled lysis buffer (containing 0.1% sodium dodecyl sulfate, 0.5% sodium deoxycholate, 1% Nonidet P-40, 10 ng/mL phenylmethanesulfonyl fluoride and 0.03% aprotinin) and lysed on ice for 30 min. After centrifugation (14,000× g, 10 min), the clear supernatant was collected. Proteins were separated by 10% sodium dodecyl sulfatepolyacrylamidegel electrophoresis and subsequently transferred to polyvinylidene difluoride membranes. The membranes were blocked with 5% BSA at room temperature for 1 h, followed by sequential incubation with primary antibodies specific to the target protein and horseradish peroxidase-conjugated secondary antibodies. Ultimately, signal detection was conducted via chemiluminescence using a gel imaging system from Bio-Rad Laboratories.

HCT-8/V cells [5] = assay: Drug accumulation assay (flow cytometry); format: cell-based, human
Procedure: (§2) Fluorescence imaging was performed using an Olympus CKX53 microscope (Tokyo, Japan) to assess the intracellular accumulation of the substrate drugs. Subsequently, cells were harvested, and fluorescent quantitative analysis was conducted using a Beckman CytoFLEX flow cytometer. The data were processed via FlowJo v10.8 software.

HCT-8 cells [6] = assay: Drug accumulation assay (flow cytometry); format: cell-based, human; details: HCT-8 parental cells
Procedure: as §2

T1 sequence (P08183 whole entry): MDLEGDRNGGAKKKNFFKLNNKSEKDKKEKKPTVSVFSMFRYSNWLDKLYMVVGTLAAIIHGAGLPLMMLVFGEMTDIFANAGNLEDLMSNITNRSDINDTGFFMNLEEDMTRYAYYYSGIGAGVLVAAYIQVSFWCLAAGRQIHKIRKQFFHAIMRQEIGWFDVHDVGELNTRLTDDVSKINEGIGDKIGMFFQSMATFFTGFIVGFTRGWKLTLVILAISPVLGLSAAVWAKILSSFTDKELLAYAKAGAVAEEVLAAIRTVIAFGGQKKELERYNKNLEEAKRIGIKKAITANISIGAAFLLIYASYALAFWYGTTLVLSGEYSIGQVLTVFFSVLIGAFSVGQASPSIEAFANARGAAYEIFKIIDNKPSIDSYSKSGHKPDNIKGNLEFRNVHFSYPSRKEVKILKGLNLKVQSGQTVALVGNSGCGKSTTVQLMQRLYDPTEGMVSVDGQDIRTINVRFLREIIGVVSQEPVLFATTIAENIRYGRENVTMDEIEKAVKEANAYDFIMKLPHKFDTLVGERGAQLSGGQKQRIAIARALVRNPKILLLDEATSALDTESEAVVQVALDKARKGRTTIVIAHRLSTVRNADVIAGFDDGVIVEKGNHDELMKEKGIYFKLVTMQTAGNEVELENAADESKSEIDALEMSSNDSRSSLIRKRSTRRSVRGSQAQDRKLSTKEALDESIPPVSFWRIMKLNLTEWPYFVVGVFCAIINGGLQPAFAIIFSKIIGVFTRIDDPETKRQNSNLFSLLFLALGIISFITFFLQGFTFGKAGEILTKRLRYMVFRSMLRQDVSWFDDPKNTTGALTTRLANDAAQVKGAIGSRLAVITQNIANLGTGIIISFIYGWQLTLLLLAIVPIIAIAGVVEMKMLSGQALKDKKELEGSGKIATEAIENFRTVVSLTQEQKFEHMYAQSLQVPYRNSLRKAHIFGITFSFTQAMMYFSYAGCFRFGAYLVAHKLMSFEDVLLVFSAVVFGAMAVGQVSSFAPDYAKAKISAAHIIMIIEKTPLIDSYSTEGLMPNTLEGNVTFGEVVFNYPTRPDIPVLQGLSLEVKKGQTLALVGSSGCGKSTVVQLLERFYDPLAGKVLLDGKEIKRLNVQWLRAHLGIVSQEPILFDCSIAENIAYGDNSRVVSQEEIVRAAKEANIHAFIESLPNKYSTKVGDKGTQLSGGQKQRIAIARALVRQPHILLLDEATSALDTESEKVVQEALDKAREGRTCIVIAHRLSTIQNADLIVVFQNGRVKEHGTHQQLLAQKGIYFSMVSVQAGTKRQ

## COc1cccc2c1C(=O)c1c(O)c3c(c(O)c1C2=O)C[C@@](O)(C(=O)CO)C[C@@H]3O[C@H]1C[C@H](N)[C@H](O)[C@H](C)O1 [Doxorubicin, doxorubicin]
HCT-8 cells [1]
  Fold Resistance: 1.0 fold
HCT-8 cells [1]; Homo sapiens, 72 h MTT
  IC50: 0.35 ± 0.081 µM
HCT-8/V cells [2]; Homo sapiens, 72 h MTT
  IC50: 6.98 ± 0.444 µM
HCT-8/V cells [2]
  Fold Resistance: 19.94 fold

## O=S(=O)(NCCNCC=Cc1ccc(Br)cc1)c1cccc2cnccc12 [H89, N-[2-(p-bromocinnamylamino)ethyl]-5-isoquinolinesulfonamide]
HCT-8 cells [1]; HCT-8, Doxorubicin + 3 μM of the labelled inhibitor
  Fold Resistance to Doxorubicin in combination: 1.06 fold
HCT-8 cells [1]; HCT-8, Doxorubicin + 10 μM of the labelled inhibitor
  Fold Resistance to Doxorubicin in combination: 1.05 fold
HCT-8 cells [1]; HCT-8, Oxaliplatin + 3 μM of the labelled inhibitor
  Fold Resistance to Oxaliplatin in combination: 0.96 fold
HCT-8 cells [1]; HCT-8, Oxaliplatin + 10 μM of the labelled inhibitor
  Fold Resistance to Oxaliplatin in combination: 0.91 fold
HCT-8 cells [1]; HCT-8, Vincristine + 3 μM of the labelled inhibitor
  Fold Resistance to Vincristine in combination: 0.96 fold
HCT-8 cells [1]; HCT-8, Vincristine + 10 μM of the labelled inhibitor
  Fold Resistance to Vincristine in combination: 0.88 fold
HCT-8 cells [1]; HCT-8, at concentrations below 30 μM, 72 h MTT
  Cytotoxicity of H89 alone: low cytotoxicity
ABCB1 [3]
  IC50: 0.246 µM
ABCB1 [4]
  ABCB1 protein level relative to β-tubulin: did not alter ABCB1 protein level
HCT-8/V cells [2]; Doxorubicin + 3 μM of the labelled inhibitor
  Fold Resistance to Doxorubicin in combination: 4.53 fold
HCT-8/V cells [2]; Doxorubicin + 10 μM of the labelled inhibitor
  Fold Resistance to Doxorubicin in combination: 1.85 fold
HCT-8/V cells [2]; Oxaliplatin + 3 μM of the labelled inhibitor
  Fold Resistance to Oxaliplatin in combination: 0.89 fold
HCT-8/V cells [2]; Oxaliplatin + 10 μM of the labelled inhibitor
  Fold Resistance to Oxaliplatin in combination: 0.79 fold
HCT-8/V cells [2]; Vincristine + 3 μM of the labelled inhibitor
  Fold Resistance to Vincristine in combination: 5.60 fold
HCT-8/V cells [2]; Vincristine + 10 μM of the labelled inhibitor
  Fold Resistance to Vincristine in combination: 1.88 fold
HCT-8/V cells [2]; at concentrations below 30 μM, 72 h MTT
  Cytotoxicity of H89 alone: low cytotoxicity
HCT-8/V cells [5]; 10 μM H89 vs 10 μM verapamil
  Intracellular accumulation of substrate drugs compared with verapamil: achieved or even exceeded the inhibitory effect of verapamil
HCT-8/V cells [5]; 30 μM H89
  Intracellular rhodamine 123 levels: comparable to that in HCT-8 cells
HCT-8/V cells [5]; 1 h pretreatment, then 10 μM doxorubicin or rhodamine 123 for 2 h
  Intracellular accumulation of doxorubicin and rhodamine 123: elevated doxorubicin and rhodamine 123 levels in HCT-8/V cells dose-dependently
HCT-8 cells [6]
  Intracellular accumulation of doxorubicin and rhodamine 123: not observed

## O=C1[O][Pt]2([NH][C@@H]3CCCC[C@H]3[NH]2)[O]C1=O [Oxaliplatin, oxaliplatin]
HCT-8 cells [1]; 72 h MTT
  IC50: 9.3 ± 0.549 µM
HCT-8 cells [1]
  Fold Resistance: 1.0 fold
HCT-8/V cells [2]; 72 h MTT
  IC50: 10.1 ± 0.09 µM
HCT-8/V cells [2]
  Fold Resistance: 1.08 fold

## CC[C@]1(O)C[C@H]2CN(CCc3c([nH]c4ccccc34)[C@@](C(=O)OC)(c3cc4c(cc3OC)N(C=O)[C@H]3[C@@](O)(C(=O)OC)[C@H](OC(C)=O)[C@]5(CC)C=CCN6CC[C@]43[C@@H]65)C2)C1 [Vincristine, vincristine]
HCT-8 cells [1]; Homo sapiens, 72 h MTT
  IC50: 0.025 ± 0.002 µM
HCT-8/V cells [2]; Homo sapiens, 72 h MTT
  IC50: > 30 µM
